This note sets out measurements from a melting point compilation (Tetko et al.; mined from patent text by program, amines drawn as free bases though some values may be those of a salt).

As to `CC(C)(C)N1CC(=O)Nc2cccc(Cl)c21`, the melting point (as a rule, the temperature of the solid-liquid transition) stood at 198 °C.

`O=C1CC(c2c(Cl)cccc2Cl)CN1` (stereo not drawn) yielded a melting point of 153 to 154 °C. Under `C#CCn1nc(-c2ccc(S(C)(=O)=O)cc2)c(-c2ccc(F)cc2)c1C(F)(F)F` stands 158 to 160 °C; under `CNC(=NC#N)NCCSCc1cccc(NC(N)=NCC(F)(F)F)n1`, 137 to 140 °C; under `CC(=O)c1ccc(N)c(C(=O)c2ccccc2)c1`, 158 to 161 °C. The same measure for `O=S(=O)(CC=C(c1ccccc1)c1ccccc1)c1ccccc1`: 106 °C; for `O=C1Cn2ncnc2-c2cc(F)ccc2N1`: 232 to 238 °C; for `CN1CCCC1=NC(=O)Nc1c(Cl)cccc1Cl`: 134 to 136 °C. `Clc1ccc2nc(CN3CCN(c4ccc(Cl)c(Cl)c4)CC3)cn2c1` yielded a melting point of 122 to 124 °C. The same measure for `C#CCn1c(=O)n(C2CCN(C(=O)OCC)CC2)c2ccc(Cl)cc21`: 126 °C. Under `Cc1nc2c(s1)CC(CO)CC2` (stereo not drawn) stands 101 to 102 °C. The same measure for `CCOC(CN1C(=O)C2=C(c3ccsc3)N(CC(OCC)OCC)C(=O)C2=C1c1ccsc1)OCC`: 166 to 167 °C; for `Cc1c(Cc2ccc(C(=O)O)s2)n(S(=O)(=O)c2cccc(C(C)(C)C)c2)c2ccc(C(F)(F)F)cc12`: 171 °C. As for `C[C@@H]1C[C@H](C)CN(C(=O)[C@@H]2Cc3ccccc3N2c2nccs2)C1`, the melting point is 172 to 174 °C. `C#Cc1ccc2c(c1)C(c1ccccc1)=NCc1c(C(=O)NC)ncn1-2` displayed a melting point of 237 to 238 °C.

For the compound `CCOP(=O)(/C=C/c1cn(-c2ccccc2)nc1OCc1ccc(OCc2nc(-c3ccco3)oc2C)c(C(=O)OC)c1)OCC`, the melting point lay within 92 to 93 °C. Under `COc1ccc2c(c1OC)C(=O)c1c-2c(N2CCNCC2)nc2ccc(Cl)cc12` stands 168 to 169 °C; under `CN(C(=O)c1nnc2ccccc2c1O)c1ccccn1`, 237 to 239 °C; under `COC(=O)C1CCCN(C(=O)OCc2ccccc2)N1C(=O)C(Br)CBr` (stereo not drawn), 132 to 134 °C. The same measure for `COc1cccc(CNc2n[nH]c(N)c2C#N)c1`: 151 to 153 °C; for `CCOC(=O)C1=NN(c2cccc(Cl)c2)C(c2ccccc2)CO1` (stereo not drawn): 103 to 104 °C; for `CCCCCN(O)C(=O)Nc1ccc(Cl)c(Cl)c1`: 88 °C.

`CCOC(=O)Cn1c(=O)c2cc(F)c(-c3ncc[nH]3)cc2n(Cc2ccc(Cl)cc2Cl)c1=O` gave a melting point of 192 to 193 °C. The same measure for `COc1ccccc1C1(O)C(O)CCC2CNCC21` (stereo not drawn): 168 °C; for `Cc1cc(CCCOc2c(C)cc(-c3noc(C#N)n3)cc2C)on1`: 93 to 94 °C. The same measure for `Cc1c(Cc2cccc(C(F)(F)F)c2)sc2c(-c3cccc(C(N)=O)c3)cccc12`: 190 to 191 °C; for `CC[C@@H](C(C)C)[C@H](O)[C@H](O)[C@@H](C)[C@H]1CC[C@H]2[C@@H]3CCC4=CC(=O)CC[C@]4(C)[C@H]3CC[C@]12C`: 192 to 194 °C; for `CC(C)(C)c1cc(-c2nc3ncccc3o2)cc(C(C)(C)C)c1`: 154 to 156 °C. Under `CSCC[C@@H](NC(=O)OC(C)(C)C)C(=O)Oc1c(Cl)c(Cl)c(Cl)c(Cl)c1Cl` stands 133 to 134 °C; under `CN(C)c1ccc(-c2ccnc3c(C(=O)c4cccs4)cnn23)cc1NC(=O)c1ccccc1Cl`, 220 to 222 °C. In turn, `O=c1oc(CCc2ccccc2)cc(O)c1SCc1ccccc1` came in with a melting point of 164 to 166 °C. Under `O=C(C=Cc1ccc2ccccc2c1)c1cnc2sc3c(n12)CCCCC3` stands 185 to 188 °C; under `Cc1ncc(CCCOc2c(C)cc(C#N)cc2C)s1`, 64 to 66 °C.

As for `COc1cc(N2CCC(=O)CC2)ncn1`, the melting point fell in the range of 111 to 114 °C.

Take `O=P(O)(O)C(O)(CC(O)c1ccccc1)P(=O)(O)O` (stereo not drawn): the melting point came out at 132 °C. Take `CN(C)C(=O)Sc1nc(-c2ccccc2)cn1-c1ccc([N+](=O)[O-])cn1`: the melting point lay in the range of 200 to 201 °C. Under `c1ccc(OCc2ccc3ccccc3n2)c(OCCCc2nnn[nH]2)c1` stands 137 to 140 °C; under `Cc1ccc(-n2c(-c3ccc(CC(=O)O)cc3)ccc2-c2ccc(CC(=O)O)cc2)cc1`, 193 to 195 °C.

Take `Cc1cc(S)c(C)c(C)c1O`: the melting point came to 86 °C. Under `O=[S@@]1CCCC[C@@H]1c1cccnc1` stands 124 to 126 °C.

Turning to `CNC(=O)Oc1ccc(NC=O)c2c1CCCC2`, the melting point is 165 to 166 °C. The same measure for `Fc1ccc(-c2cn([C@H]3CN4CCC3CC4)nn2)cn1`: 147 °C; for `CC(C)(C)c1csc(-c2cc3cc(OCc4cccc(C#N)c4)ccc3o2)n1`: 104 to 106 °C. The same measure for `COc1ccc(C2CC(=O)c3c(C)coc3C2)cc1` (stereo not drawn): 82 to 83 °C; for `O=c1oc2c(c(O)c1Br)c(=O)n(Cc1ccccc1)c1ccccc21`: 226 to 229 °C; for `CNCCCOc1ccc(-c2ccc(C(=O)O)cc2)cc1-c1ccc2c(c1)C(C)(C)CCC2(C)C`: 242 °C. The same measure for `Cc1c(Cl)cc(-c2ccc(OC(=O)N3CCOCC3)nn2)cc1Cl`: 155 to 159 °C; for `Cc1nc2cccc3n(CCCNS(=O)(=O)CC(F)(F)F)c(=O)c1n23`: 157 to 158 °C. `CCCn1c(=O)c2c(nc(/C=C/c3ccc(OCC)c(OCC)c3)n2C)n(CCC)c1=O` had a melting point of 174 °C. Under `O=C1c2ccc(C#Cc3cccc4ccccc34)cc2C(=O)N1c1ccccc1` stands 176 to 178 °C; under `COc1ccc(-c2nc(CO)c[nH]2)cc1`, 171 to 173 °C; under `COc1ccc(Cn2c(=O)c3c(c4ccccc42)OC(C)(C)[C@@H](Br)[C@@H]3O)cc1` (relative stereo), 146 to 147 °C. As for `N#CC(=C1Nc2ccccc2O1)S(=O)(=O)c1ccccc1`, the melting point was in the range of 215 to 218 °C. Under `CNCc1ccc2cc(OC)ccc2c1` stands 96 to 104 °C.

`CON=Cc1cc(=O)c(OCc2ccccc2)c(C(=O)c2ccc(Cc3ccc(F)cc3)o2)o1` gave a melting point of 116 to 117 °C. As for `CP(=O)(O)C(CCc1ccccc1)NC(=O)C(F)(F)F` (stereo not drawn), the melting point was 138 to 145 °C.

In turn, `CCCCCCOc1ccc(NS(=O)(=O)c2ccc(N3CCNC3=O)cc2)cc1` displayed a melting point of 225 to 226 °C. The same measure for `C=Cc1cc(C(F)(F)F)ccc1-c1cc(Oc2cccc3sc(NC(C)=O)nc23)ncn1`: 234 to 237 °C. The compound `O=c1c2ccc([N+](=O)[O-])cc2nc2n1CCC2=Cc1ccccc1` displayed a melting point of 196 to 197 °C. The same measure for `CC(C)(C)OCCOc1cc(NC(=O)OC(C)(C)C)c([N+](=O)[O-])cc1I`: 113 to 116 °C. The same measure for `Cc1nc(N2CCN(Cc3ccc(C#N)cc3)C2=O)sc1C(=O)NCc1ccccc1`: 176 to 178 °C; for `N#Cc1ccc(C2NCCc3ccccc32)cc1` (racemic): 114 to 115 °C. Under `COC(=O)c1cc(O)n[nH]1` stands 229 to 231 °C.
